The values below come from PMC11369432, “Study on the uptake of Gastrodin in the liver” (Heliyon, 2024).

“And” between values parts separate entries of the source, which are not always exact repeats. Equal values may be shown once. Where a name gives a salt, the structure may show the parent alone.

In data set [1] the test system is OCTs. Description: Check of the OCTs inhibitor in rats with metformin hydrochloride as substrate. It counts as in vivo. The source says: (§1) Selecting suitable substrates and inhibitors of OATPs and OCTs is crucial for the experiment. Therefore, our team also used OATPs and OCTs inhibitors. Based on the relevant literature, metformin hydrochloride was selected as the substrate of OCTs, and sodium sulfobromophthalide (BSP) was selected as the substrate of OATPs. […] Most of the previous studies used RIF as an inhibitor of OATPs and epinephrine as an inhibitor of OCTs. We detected drug concentration in blood samples and in the liver of rats. The concentration of metformin hydrochloride was detected by HPLC, and BSP was measured by enzyme-linked immunosorbent assay (ELISA).

Data set [2] can be described thus: Gastrodin plasma and liver concentrations and Kp in rats, control group (no inhibitor). It counts as in vivo, Sprague-Dawley (SD) rats. The source says: (§2) The transporters involved in liver transport mainly include organic anion transport peptides (Oatps) and organic cation transporters (Octs), and these two transporters are most expressed in the liver. Therefore, this study chose Oatps and Octs as the research objects. Transport proteins affect drug efficacy and toxicity, the liver is the main organ for the metabolism of substances. […] Using the method of rats in vivo, and choose organic anion transfer peptide Oatps and organic cation transporter Octs inhibitors for the probe, after the transporters are suppressed, intravenous drip Gastrodine, drug concentrations reach homeostasis in blood drug concentration, drug absorption rate and elimination rate balance, illustrate the liver intake transporters saturated. Using HPLC determination of drug concentration in liver and blood at this time the ratio of the Kp (Kp = Css/Css drug concentration of liver blood drug concentration), and under normal circumstances (i.e., without giving inhibitors) compared to Kp, if Kp decrescent, namely that the drug transporters of the substrate. This study explore the intrinsic relationship between the uptake of Gastrodin in rat liver and the organic anion transport peptide Oatps and organic cation transporter Octs, thus preliminarily elucidating the molecular mechanism of Gastrodin uptake in the liver, provide theoretical basis for the safety of clinical combination therapy [[10], [11], [12]].
(§3) The use of experimental animals was approved by the Ethics Committee of Southwest University (Chongqing, China). We strictly followed the National and Institutional guidelines for animal protection and welfare. In total, 18 adult male Sprague-Dawley (SD) rats (SPF, weight: 150 ± 20g) were obtained from the Center of Experimental Animals, Sichuan Province People's Hospital. The rats were kept at room temperature (25 °C) with free access to food and water. They were allowed to adapt to the new environment for one week before starting induction and treatment. Following acclimatization, the experimental rats were randomly divided into three groups (n = 6) as follows: Control group (treated with Gastrodin), ADR group (treated with Gastrodin and adrenalone), and RIF group (treated with Gastrodin and rifampicin).
(§4) To clarify the role of hepatic transport proteins, the concentration of Gastrodin chosen for this experiment was 569 mg kg^−1 (converted from the concentration in mice: rat dose (mg·kg^−1) = mouse dose (mg·kg^−1)/1.44), based on the results of previous studies. An equal dose of Gastrodin was injected before intravenous drip as a loading dose, to ensure that the steady-state blood concentration (Css) of Gastrodin was reached and the transporter protein was saturated by 300 min of intravenous drip. Then, the volume of Gastrodin was computed according to the following formula: drop volume = drop speed (4 μL h^−1 g^−1) × time × weight.
(§5) Gastrodin solution: 1138.9 mg of Gastrodin extract was added to a 10 mL volumetric flask. Physiological saline was added and diluted to prepare a solution with a concentration of 113.89 mg mL^−1. Then, the solution was frozen and stored (administered at 1 mL·200g ^−1 i.v.).
The rats were fasted for 12 h before the experiment. They had free access to water. The rats were regularly weighed before the initiation of the experiment. The control group first received Gastrodin solution (569 mg kg^−1) through the caudal vein as a loading dose, followed by the caudal injection of a Gastrodin solution (569 mg kg^−1) at a rate of 4 μg h^−1·g^−1. Each rat of the RIF group was given rifampicin 2 mL·200 g^−1 via oral gavage and 1h later 569 mg kg^−1 of Gastrodin was injected. Likewise, the ADR group was injected with adrenalone (0.5 mL·200 g^−1) via the caudal vein, and 0.5 h later 569 mg kg^−1 of Gastrodin was injected. […]

Data set [3] concerns OATPs. Description: Hepatic uptake of Gastrodin in rats after the OATPs inhibitor rifampicin (RIF group). It counts as in vivo, Sprague-Dawley (SD) rats.
Source text: as §2, §3, §4, §5
Rifampicin (RIF) solution: 90 mg of rifampicin was precisely weighed. Then, 30 mL saline was added to prepare 3 mg mL^−1 solution (administered at 2 mL·200 g ^−1 i.g.).
(§6) The rats were fasted for 12 h before the experiment. They had free access to water. The rats were regularly weighed before the initiation of the experiment. The control group first received Gastrodin solution (569 mg kg^−1) through the caudal vein as a loading dose, followed by the caudal injection of a Gastrodin solution (569 mg kg^−1) at a rate of 4 μg h^−1·g^−1. Each rat of the RIF group was given rifampicin 2 mL·200 g^−1 via oral gavage and 1h later 569 mg kg^−1 of Gastrodin was injected. […]

The subject of data set [4] is OCTs. Description: Hepatic uptake of Gastrodin in rats after the OCTs inhibitor adrenalone (ADR group). The format is in vivo, Sprague-Dawley (SD) rats.
Source text: as §2, §3, §4, §5
Adrenalone (ADR) solution: 64 mg of […] was weighed precisely and prepared at 8 mg mL^−1 concentration (administered at 0.5 mL·200 g^−1 i.v.) using 30 % PEG400 as solvent.
as §6

The nature of data set [5]: Stability of Gastrodin solution (room temperature, repeated freeze-thaw). As to conditions: Gastrodin solution stored at −20 °C. The format is physicochemical. The procedure: To verify whether the sample processing and detection methods were stable, we examined both their room temperature stability and their repeated freeze-thaw stability.
Three solutions containing 50 mg mL^−1, 100 mg mL^1, and 500 mg mL^−1 of Gastrodin were first prepared and stored at room temperature. This was then measured every 6 h. Finally, the RSD was calculated, which was examined for its room temperature stability.
Three solutions of the same concentration were prepared as described above and tested immediately after preparation. They were then stored at −20 °C for 21 h, removed to allow thawing, and left at room temperature for 3 h before assay. The test was continued at a low temperature and the RSD was calculated after repeating the assay three times to investigate its repeated freeze-thaw stability.

On the set-up of data set [6]: method as in doi:10.4103/pm.pm_307_19. As to conditions: mice, different doses; conforms to a two-compartment model; cited from earlier work.
For data set [7], the system named is OATPs. Briefly: Check of the OATPs inhibitor in rats with BSP as substrate. The format is in vivo. As to conditions: dose of 30 mg kg^−1, ELISA.
Source text: as §1

Turning to `CNCC(=O)c1ccc(O)c(O)c1` [ADR, adrenalone], the “Hepatic transportation of OCTs in rats” value with OCTs [1] (dose of 20 mg kg^−1, substrate metformin hydrochloride, HPLC) is given as “inhibited”.
In the case of `OCc1ccc(O[C@@H]2O[C@H](CO)[C@@H](O)[C@H](O)[C@H]2O)cc1` [GAS, hydroxyl methyl benzene - beta - D - pyran glucoside], the “KP (liver / blood concentration)” value in data set [2] (Control group, single rats, 300 min) was 0.2918 and 0.2172 and 0.0618 and 0.3204 and 0.0919; in the data set on OATPs [3] (RIF group, single rats, 300 min), 0.0695 and 0.1237 and 0.0037 and 0.0044 and 0.0041 and 0.0042; in the data set with OCTs [4] (ADR group, single rats, 300 min) it was 0.0645 and 0.0324 and 0.0463 and 0.0716 and 0.0447 and 0.1550. Besides, the “Plasma concentration of GAS, 90min” value is 418.6414 µg/mL and 490.4070 µg/mL and 858.0713 µg/mL and 839.0300 µg/mL and 374.1060 µg/mL and 714.8180 µg/mL in data set [2] (Control group, single rats, Gastrodin 569 mg kg^−1 i.v. loading dose plus i.v. drip, 90 min); 30828.4900 µg/mL and 1684.7620 µg/mL and 8505.0480 µg/mL and 15559.1500 µg/mL and 79163.4800 µg/mL and 26044.6400 µg/mL with OATPs [3] (RIF group, single rats, rifampicin 2 mL·200 g^−1 i.g. 1 h before Gastrodin 569 mg kg^−1, 90 min); 617.7201 µg/mL and 10576.3600 µg/mL and 1294.1160 µg/mL and 1093.5800 µg/mL and 3877.7610 µg/mL with OCTs [4] (ADR group, single rats, adrenalone 0.5 mL·200 g^−1 i.v. 0.5 h before Gastrodin 569 mg kg^−1, 90 min). The “Plasma concentration of GAS, 180min” value in data set [2] (Control group, single rats, Gastrodin 569 mg kg^−1 i.v. loading dose plus i.v. drip, 180 min) is 296.4502 µg/mL and 450.2900 µg/mL and 241.1238 µg/mL and 473.1890 µg/mL and 388.0036 µg/mL and 943.8820 µg/mL; in the data set with OATPs [3] (RIF group, single rats, rifampicin i.g. 1 h before Gastrodin 569 mg kg^−1, 180 min), 13840.5600 µg/mL and 8435.3490 µg/mL and 24589.4100 µg/mL and 8312.9910 µg/mL and 20131.4400 µg/mL and 4501.0340 µg/mL; with OCTs [4] (ADR group, single rats, adrenalone i.v. 0.5 h before Gastrodin 569 mg kg^−1, 180 min), 650.1415 µg/mL and 3246.9130 µg/mL and 497.0489 µg/mL and 1215.3470 µg/mL and 1883.7120 µg/mL. The “Plasma concentration of GAS, 300min” value in data set [2] (Control group, single rats, Gastrodin 569 mg kg^−1 i.v. loading dose plus i.v. drip, 300 min) was 160.2300 µg/mL and 435.3740 µg/mL and 690.0752 µg/mL and 482.2634 µg/mL and 537.2563 µg/mL and 961.3480 µg/mL; in the data set with OATPs [3] (RIF group, single rats, rifampicin i.g. 1 h before Gastrodin 569 mg kg^−1, 300 min) it was 2063.3640 µg/mL and 8969.1250 µg/mL and 10985.5800 µg/mL and 9971.0380 µg/mL and 23912.4400 µg/mL; in the data set with OCTs [4] (ADR group, single rats, adrenalone i.v. 0.5 h before Gastrodin 569 mg kg^−1, 300 min), 2255.8310 µg/mL and 2303.3090 µg/mL and 659.0208 µg/mL and 643.2905 µg/mL and 1871.4590 µg/mL. The “Liver concentration of GAS” value was 46.7539 µg/mL and 94.5472 µg/mL and 42.6760 µg/mL and 154.5100 µg/mL and 49.3480 µg/mL and 165.2782 µg/mL in data set [2] (Control group, single rats, liver taken at 300 min); 143.4890 µg/mL and 54.8940 µg/mL and 33.3675 µg/mL and 48.7120 µg/mL and 41.0071 µg/mL and 101.5434 µg/mL with OATPs [3] (RIF group, single rats, liver taken at 300 min); 25.4541 µg/mL and 73.1891 µg/mL and 106.5988 µg/mL and 47.2096 µg/mL and 28.7519 µg/mL and 290.1262 µg/mL with OCTs [4] (ADR group, single rats, liver taken at 300 min). The Kp at 300 min in data set [2] (male, Sprague-Dawley, rat, liver / blood, intravenous, 569 mg kg^−1, Control group, n = 6) was determined as 0.14 ± 0.127; with OATPs [3] (male, Sprague-Dawley, rat, liver / blood, intravenous, RIF group, n = 6, *p < 0.05 vs Control) it was 0.035 ± 0.0508; with OCTs [4] (male, Sprague-Dawley, rat, liver / blood, intravenous, ADR group, n = 6, *p < 0.05 vs Control) it was 0.0691 ± 0.0444. For the same molecule, the “Substrate of OATPs” value in the data set on OATPs [3] (concluded from lower KP after OATPs inhibitor, rat in vivo) is “likely substrate”. Besides, the concentration at 300 min was found to be 444 µg/mL in the data set with OATPs [3] (male, Sprague-Dawley, rat, plasma, intravenous, RIF group, single rats, rifampicin i.g. 1 h before Gastrodin 569 mg kg^−1, 300 min, read-out: Plasma concentration of GAS, 300min) and 394 µg/mL in the data set with OCTs [4] (male, Sprague-Dawley, rat, plasma, iv, ADR group, single rats, adrenalone i.v. 0.5 h before Gastrodin 569 mg kg^−1, 300 min, read-out: Plasma concentration of GAS, 300min). For the same molecule, the “Substrate of OCTs” value in the data set with OCTs [4] (concluded from lower KP after OCTs inhibitor, rat in vivo) is “likely substrate”. Also, the concentration at 90 min with OCTs [4] (male, Sprague-Dawley, rat, plasma, iv, ADR group, single rats, adrenalone 0.5 mL·200 g^−1 i.v. 0.5 h before Gastrodin 569 mg kg^−1, 90 min, read-out: Plasma concentration of GAS, 90min) amounted to 762 µg/mL. For the same molecule, the concentration at 180 min in the data set on OCTs [4] (male, Sprague-Dawley, rat, plasma, iv, ADR group, single rats, adrenalone i.v. 0.5 h before Gastrodin 569 mg kg^−1, 180 min, read-out: Plasma concentration of GAS, 180min) worked out at 445 µg/mL. In addition, in data set [5], the “Storage time with good stability” value was “at least 3 days”. Also, the Pharmacokinetic profile result in data set [6] is reported as “non-linear”.
For `CO[C@H]1/C=C/O[C@@]2(C)Oc3c(C)c(O)c4c(O)c(c(/C=N/N5CCN(C)CC5)c(O)c4c3C2=O)NC(=O)/C(C)=C\C=C\[C@H](C)[C@H](O)[C@@H](C)[C@@H](O)[C@@H](C)[C@H](OC(C)=O)[C@@H]1C` [RIF, rifampicin], the “Hepatic transport of OATPs in rats” value in the data set on OATPs [7] is recorded as “inhibited”.
In the case of `CN(C)C(=N)N=C(N)N` [metformin hydrochloride], the “Hepatic concentrations of the drug after OCTs inhibitor” value in the data set with OCTs [1] (rats, OCTs inhibitor given) is “significant reduction”.
